The text below walks through data of US20080261895A1 (Wyeth, priority 2006, published 2008).

One series deals with adrenergic receptors. The note with it: in vitro; cited from earlier work.
For the next series, the system named is dog liver microsomes. As to the kind of experiment: Glucuronidation in dog liver microsomes. The format is in vitro ADME. The note with it: dog liver microsomes 1 mg/mL, 100 μM, 30 minutes. As to the method:
To confirm the site of glucuronidation of DVS, incubations were performed using dog liver microsomes. These incubations compared the glucuronidation of DVS to venlafaxine. […] Reactions were initiated by the addition of UDPGA (final concentration 1 mM). An additional set of incubations was performed for venlafaxine with UDPGA and an NADPH generating system. […] Reactions were stopped by the addition of 500 μL of acetonitrile and processed as described above. Samples were analyzed by LC/MS.
(In general: Microsomes from liver hold many membrane-bound enzymes, among them those of drug oxidation.)

Another series concerns histaminergic receptors. The note with it: in vitro; cited from earlier work.
The next series concerns monoamine oxidase. The note with it: cited from earlier work.
The nature of series [1]: Metabolites of DVS observed by LC/MS in dog plasma, urine and feces. It counts as in vivo, beagle dogs. The note with it: P: plasma, U: urine, F: feces. As to the method:
An Agilent Model 1100 HPLC system (Agilent Technologies, Wilmington, Del.) including an autosampler and diode array UV detector was used for LC/MS analysis. The UV detector was set to monitor 200 to 400 nm. Separations were accomplished on a 5 micron Phenomenex Luna C18(2) column, 150×2 mm (Phenomenex). The column temperature was 25° C. For selected LC/MS analyses, radiochromatograms were acquired using a β-RAM model 3 radioactivity flow detector (IN/US Systems Inc., Tampa, Fla.) equipped with a solid scintillation flow cell.
The mass spectrometers used for metabolite characterization were a Micromass Q-TOF-2 quadrupole time-of-flight hybrid mass spectrometer (Micromass, Inc., Beverly, Mass.) and a Finnigan LCQ Deca ion trap mass spectrometer (ThermoFinnigan, San Jose, Calif.). The mass spectrometer was equipped with an electrospray ionization (ESI) interface and operated in the positive ionization mode.

Another series deals with Opiate. The note with it: cited from earlier work.
In a further series the target is Histamine Hi (Homo sapiens, UniProt P35367). The following applies: cited from earlier work.
Series [2] in a line: Metabolites of DVS observed by LC/MS in rat plasma, urine and feces. It counts as in vivo, Sprague Dawley rats. The note with it: P: plasma, U: urine, F: feces. As to the method: An Agilent Model 1100 HPLC system (Agilent Technologies, Wilmington, Del.) including an autosampler and diode array UV detector was used for LC/MS analysis. The UV detector was set to monitor 200 to 400 nm. Separations were accomplished on a 5 micron Phenomenex Luna C18(2) column, 150×2 mm (Phenomenex). The column temperature was 25° C. The mobile phases and gradient program were as follows.
The mass spectrometer used for metabolite characterization was a Micromass Q-TOF-2 quadrupole time-of-flight hybrid mass spectrometer (Micromass, Inc., Beverly, Mass.). The mass spectrometer was equipped with an electrospray ionization (ESI) interface and operated in the positive ionization mode.

The test system of a further series is Adrenergic a. The following applies: cited from earlier work.
The next series concerns s Cholinergic. The following applies: cited from earlier work.
The next series has as its target D2 (Homo sapiens, UniProt P14416). The following applies: cited from earlier work.
Series [3] concerns Reserpine-Induce Hypothermia. The following applies: cited from earlier work.

Sequence of D2 (P14416 whole entry): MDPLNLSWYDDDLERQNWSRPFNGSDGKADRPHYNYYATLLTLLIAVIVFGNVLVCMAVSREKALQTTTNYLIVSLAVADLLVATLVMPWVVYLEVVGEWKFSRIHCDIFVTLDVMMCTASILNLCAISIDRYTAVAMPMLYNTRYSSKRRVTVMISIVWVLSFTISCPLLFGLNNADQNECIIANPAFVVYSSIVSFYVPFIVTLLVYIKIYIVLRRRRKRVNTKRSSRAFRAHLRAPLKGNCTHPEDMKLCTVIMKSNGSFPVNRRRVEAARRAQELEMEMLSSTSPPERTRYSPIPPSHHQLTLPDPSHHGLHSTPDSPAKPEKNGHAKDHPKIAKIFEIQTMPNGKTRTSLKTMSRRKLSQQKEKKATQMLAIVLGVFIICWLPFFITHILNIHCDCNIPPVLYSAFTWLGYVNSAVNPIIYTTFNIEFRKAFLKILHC
Sequence of Histamine Hi (P35367 whole entry): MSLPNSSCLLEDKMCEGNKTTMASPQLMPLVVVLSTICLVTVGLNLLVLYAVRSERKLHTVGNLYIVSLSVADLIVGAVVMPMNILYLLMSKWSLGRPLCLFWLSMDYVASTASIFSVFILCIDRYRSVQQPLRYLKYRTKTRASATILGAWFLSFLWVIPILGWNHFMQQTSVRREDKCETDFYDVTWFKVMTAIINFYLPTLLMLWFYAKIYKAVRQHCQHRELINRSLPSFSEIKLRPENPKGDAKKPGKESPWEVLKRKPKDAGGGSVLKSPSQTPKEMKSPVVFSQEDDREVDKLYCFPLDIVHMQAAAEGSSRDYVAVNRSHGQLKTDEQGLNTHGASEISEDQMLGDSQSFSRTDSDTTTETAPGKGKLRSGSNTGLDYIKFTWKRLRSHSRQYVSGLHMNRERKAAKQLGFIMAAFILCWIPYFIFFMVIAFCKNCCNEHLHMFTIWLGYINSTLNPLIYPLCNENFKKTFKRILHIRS

Take `COc1ccc(C(CN(C)C)C2(O)CCCCC2)cc1` (stereo not shown) [venlafaxine, 1-[2-(dimethylamino)-1-(4-methoxyphenyl)ethyl]cyclohexanol]: the “affinity for adrenergic receptors” value in the series on adrenergic receptors is “virtually no affinity”. In addition, the glucuronidation result in the series on dog liver microsomes (in the presence of both UDPGA and NADPH) is “observed”; with dog liver microsomes (in the presence of only UDPGA), “not”. Further, the “affinity for histaminergic receptors” value with histaminergic receptors is “virtually no affinity”. The “inhibitory activity on monoamine oxidase” value with monoamine oxidase is “no inhibitory activity”.

Take `CN(C)CC(c1ccc(O)cc1)C1(O)CCCCC1` (stereo not shown) [O-DESMETHYLVENLAFAXINE, 1-[2-(dimethylamino)-1-(4-phenol)ethyl]-cyclohexanol]: the “Matrix (metabolite observed by LC/MS)” value is listed as “P, U, F” in series [1] and “P, U, F” in series [2]. Besides, the “Affinity for Various Neuroreceptors (% inhibition at 1 uM): Opiate” value in the series on Opiate is on record as 7%. Further, the “Affinity for Various Neuroreceptors (% inhibition at 1 uM): Histamine Hi” value at Histamine Hi is recorded as 0%. Further, the “Affinity for Various Neuroreceptors (% inhibition at 1 uM): Adrenergic a” value in the series with Adrenergic a is reported as 0%. Also, the “Affinity for Various Neuroreceptors (% inhibition at 1 uM): s Cholinergic” value with s Cholinergic is 7%. Besides, the “Affinity for Various Neuroreceptors (% inhibition at 1 uM): D2” value at D2 is recorded as 6%. In series [3], the “Reversal of Reserpine-Induce Hypothermia (minimum effect; mg&g i.p.)” value was 3 mg&g.
